Patent publication US10865203B2, “Ligands selective to alpha 6 subunit-containing GABAA receptors and their methods of use” (UWM Research Foundation, Inc., priority 2015, dated 2020)
Entries after “also recorded” stand apart in the source; their conditions may differ.

Legend:
[1] = Half-life in liver microsomes (Example 4); type: in vitro ADME; settings: rat and human liver microsomes, species of the value not stated
Description: Metabolic pathways that may disrupt the activity of compounds with aryl methoxy groups were investigated.

[2] = test system: mice, methamphetamine-induced hyperlocomotion; experiment: Locomotor activity, methamphetamine-induced hyperlocomotion; type: in vivo, mouse
Description: The locomotor activity of the mouse was measured by its interruptions of infra-red photobeans in a locomotor cage (42 cm×42 cm×36 cm) in the photobeam activity system (San Diego Instruments, San Diego, Calif.). After acclimation, the mouse was treated with ci extract or vehicle for 15 min, followed by ma (2 mg/kg). Then, the mouse was gently placed in the locomotor cage and the horizontal and vertical interruptions were counted every 5 min for 60 min. Total locomotor activity was the sum of interruptions within 60 min.
Mice were anaesthetized with sodium pentobarbital (60 mg/kg i.p.) And placed in a stereotaxic frame keeping the bregma-lambda axis horizontal. After shaving the hair and exposing the skull surface, the mouse was implanted with two 24-gauge stainless-steel guide cannulas, respectively, directing towards the right and left lateral cerebella (−6.4 mm caudal, ±1.5 mm lateral, −1.0 mm ventral from bregma) according to the stereotaxic coordinate of the mouse (Paxions 2001). The cannulas were fixed on the top of the skull by stainless steel screws and dental cement. The animal was allowed to fully recover after surgery for at least one week before the behavioral test was conducted.
On the day for behavioral tests, a 30-gauge injection cannula connected to a 1 μL hamilton syringe was inserted into the guide cannula for drug injection. The drug solution of 0.5 μL in each side was slowly infused with a microinfusion pump (kds311, kd scientific inc.) For 30 s with a further “hold” time for 60 s. The microinjection site was confirmed by the positive staining of trypan blue, which was injected through the cannula after behavioral tests. Data from mice with offsite injections were discarded.

[3] = test system: mice, apomorphine-induced stereotypy climbing; experiment: Apomorphine-induced stereotypy behaviors; type: in vivo, mouse; settings: 3 mg/kg i.p., apomorphine 1 mg/kg s.c.
Description: The mouse was placed into a lidded cylindrical cage (diameter: 12 cm; height: 14 cm) made with 1 cm-separated metal grids for 1 hour's habituation. Then, the mouse received apomorphine (1 mg/kg, s.c.) Injection. The behaviors of the mouse were videotaped, and the stereotypy behaviors were scored every 5 min for 1 min, starting from 15 min before apomorphine injection until 60 min after injection.
The stereotypy behaviors induced by apomorphine were scored by reference to a previous report (Park et al. 2003) with modifications as the followings: 0: normal behaviors (sleeping, normal sniffing); 1: increased activity and sniffing (grooming, rearing, paw licking, jumping); 2: occasional clinging to the side wall of the cage with forepaws; 3: intermittent clinging to the top lid of the cage with all four paws; 4: uninterrupted climbing with all four paws to the top lid. The highest rating score during the 1 min-recording period was counted.

[4] = test system: c-Fos-ir neurons in the TNC of Wistar rats; experiment: Migraine model: capsaicin (i.c.)-induced neuronal activation in the TCC; type: in vivo, rat; settings: i.p., capsaicin 10 nmol i.c., 2 hours after
Description: Intra-cisteral instillation of capsaicin. Under anesthesia with chloral hydrate (400 and 100 mg/kg, i.p., respectively, for inducing and maintaining), the rat received a midline skin incision from the occipital protuberance to the upper cervical area. After catheterization with a catheter (PE-10, SIMS Portex Ltd, Hythe, UK) inserted 3 mm deep into the cisterna magna, the rat was placed in a prone position for 6 h. Then, the capsaicin solution (10 nmol, 100 μL) was instilled through the catheter into the cisterna magna over 1 min. The rat was then placed in a reverse Trendelenburg position (−30 degrees) for 30 min in order to facilitate capsaicin distribution within the subarachnoid space, followed by the prone position for another 90 min. […]
Measurement of the total number of C-fos-ir neurons in the TCC. C-Fos-ir neurons, i.e., neurons with stained nuclei, were counted under a microscope (Olympus BX51, Essex, UK) by an observer blinded to the treatment group. […] The total number of c-Fos-ir TCC neurons were estimated based on the formular derived in our previous study (Fan et al., 2012): 16(N1+N2)/2+53(N2+N3)/2, where N1, N2, and N3 were the c-Fos-ir neuronal numbers measured at […] from the obex, respectively.

COc1ccc(-n2nc3c4ccc(OC)cc4[nH]cc-3c2=O)cc1 [Compound 6, 7-Methoxy-2-(4-methoxyphenyl)-2,5-dihydro-3H-pyrazolo[4,3-c]quinolin-3-one]
half-life [1]: 2.92 h | effect of intra-cerebellum furosemide on the rescue of hyperlocomotion ([2]; furosemide 10 nmol): significantly antagonized | methamphetamine-induced hyperlocomotion ([2]; mice, 3 mg/kg i.p., METH 2 mg/kg i.p., 60 min): significantly rescued | spontaneous motor activity ([2]; mice, 3 mg/kg i.p., saline instead of METH): did not affect | stereotypy climbing behaviors induced by apomorphine [3]: did not affect | number of c-Fos-ir neurons in the TNC induced by i.c. capsaicin [4]: significantly decreased; also recorded: reduces
